From patent US8906904B2, “Alkoxy pyrazoles as soluble guanylate cyclase activators” (Boehringer Ingelheim International GmbH, priority 2012, dated 2014)

What was measured:
[1] = human liver microsome (HLM) metabolic stability assay; type: in vitro ADME; conditions: human liver microsomes; % hepatic blood flow calculated from t1/2
How it was run: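 Compounds at 1 uM incubated with human liver microsomes plus NADPH at 37° C., sampled at 0, 5, 15, 30 and 60 min into cold acetonitrile and quantified by LC/MS/MS. t½ from the slope of ln % remaining vs time; CLint, CLh and % Qh derived from it (n=1).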

[2] = target: T1, human soluble guanylate cyclase alpha 1 and beta 1 subunits (sGC) (Homo sapiens, UniProt Q02108+Q02153); assay: sGC cellular activator assay (cGMP, HTRF); type: cell-based; conditions: CHO cells stably expressing human sGC alpha 1/beta 1, preincubated with 40 microM ODQ; cGMP readout; assay run with and without 50% human serum, Table 2 does not say which
T1 construct: expressed in transfected cells; host or cells: Chinese hamster ovary (CHO) cells, stably transfected
T1 sequence (Q02108 1-690): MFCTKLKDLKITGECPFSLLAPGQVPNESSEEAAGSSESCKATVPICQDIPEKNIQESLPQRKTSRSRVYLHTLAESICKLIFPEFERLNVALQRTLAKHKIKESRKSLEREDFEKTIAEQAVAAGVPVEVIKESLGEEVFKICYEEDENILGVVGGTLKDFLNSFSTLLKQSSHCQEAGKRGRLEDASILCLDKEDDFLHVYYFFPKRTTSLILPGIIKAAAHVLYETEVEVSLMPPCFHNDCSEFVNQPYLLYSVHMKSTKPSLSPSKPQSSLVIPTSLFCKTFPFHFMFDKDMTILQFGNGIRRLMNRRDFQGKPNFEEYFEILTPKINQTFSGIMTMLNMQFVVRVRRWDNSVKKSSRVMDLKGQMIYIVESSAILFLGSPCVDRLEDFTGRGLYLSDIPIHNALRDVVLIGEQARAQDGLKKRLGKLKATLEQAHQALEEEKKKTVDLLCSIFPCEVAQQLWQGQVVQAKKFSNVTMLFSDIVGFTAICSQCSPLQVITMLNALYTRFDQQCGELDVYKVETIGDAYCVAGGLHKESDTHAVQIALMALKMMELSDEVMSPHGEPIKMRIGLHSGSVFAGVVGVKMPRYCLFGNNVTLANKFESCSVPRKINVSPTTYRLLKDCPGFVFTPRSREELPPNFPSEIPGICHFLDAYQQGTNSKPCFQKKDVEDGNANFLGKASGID
T1 sequence (Q02153 1-619): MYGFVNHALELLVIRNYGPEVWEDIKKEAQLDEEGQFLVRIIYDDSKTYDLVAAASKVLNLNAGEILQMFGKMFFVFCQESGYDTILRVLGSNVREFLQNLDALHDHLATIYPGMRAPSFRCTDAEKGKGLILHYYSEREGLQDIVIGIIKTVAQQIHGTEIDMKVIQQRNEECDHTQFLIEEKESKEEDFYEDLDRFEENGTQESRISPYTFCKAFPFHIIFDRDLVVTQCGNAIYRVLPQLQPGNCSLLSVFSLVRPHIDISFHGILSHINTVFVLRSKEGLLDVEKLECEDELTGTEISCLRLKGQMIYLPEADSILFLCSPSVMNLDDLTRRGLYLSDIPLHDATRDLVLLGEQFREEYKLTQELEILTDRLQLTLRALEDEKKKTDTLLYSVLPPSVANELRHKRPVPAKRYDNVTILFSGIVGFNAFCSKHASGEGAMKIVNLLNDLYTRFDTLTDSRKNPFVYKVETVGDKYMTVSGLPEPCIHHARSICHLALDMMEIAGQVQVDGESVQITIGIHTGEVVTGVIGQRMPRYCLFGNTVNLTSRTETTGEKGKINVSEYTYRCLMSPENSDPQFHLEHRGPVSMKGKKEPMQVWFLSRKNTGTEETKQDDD
How it was run: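 Heme-oxidized conditions: ODQ (40 microM, 1 h) pretreatment of CHO cells stably expressing human α1/β1 sGC, in buffer containing 0.1% BSA and IBMX.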

HLM (% Qh) [1] | EC50 [2] | SMILES
<24 % Qh | 19 nM | CCOc1c(C(=O)O)cnn1-c1cccc(-c2cccc(C)c2OCc2cc(C)c3c(c2)CCN([C@H]2CCCOC2)C3)n1 [Compound 197]
<24 % Qh | 5.3 nM | COc1c(C(=O)O)cnn1-c1cccc(-c2cccc(C)c2OCc2ccc3c(c2C)CCN(C[C@@H]2CCCCO2)C3)n1 [Compound 198]
